The values that follow come from patent US9918968B2, “Rapamycin analogs targeting proteasome function in the treatment of cancer” (THE BOARD OF REGENTS OF THE UNIVERSITY OF TEXAS SYSTEM, priority 2013, dated 2018).

For one assay, the system named is T1, 20S proteasome α face.
T1 construct: purchased Enzo LifeSciences
Briefly: AFM imaging of open/closed conformers of 20S proteasome α face. Also on record: species or system human. Conditions: 10 μM compound. How it is done: AFM imaging of the 20S proteasomes were performed as previously described, in tapping (oscillating) mode in liquid (Osmulski et al., 2009 and Gaczynska and Osmulski, 2011). In short, 3 μL of proteasome preparations diluted to nanomolar concentration were deposited on a freshly cleaved muscovite mica surface. After 2 min incubation allowing electrostatic attachment of the protein particles to mica the droplet was overlaid with 30 microL of 50 mM Tris-HCl buffer (pH 7.0) and mounted in the wet chamber of a MultiMode NanoScope Ma (Bruker Corp.). Oxide-sharpened silicon nitride tips on cantilevers with a nominal spring constant 0.32 N/m (Bruker Corp.) were used to image 1 μm^2 fields in the height mode, with a scan rate of 3.05 Hz. The excitation frequency was manually tuned to 9-10 kHz, with a drive voltage of 200-500 mV and a relatively high set point (1.6 V to 1.9 V) to assure tapping with low, non-destructive force. […] As the inventors established previously, such resolution was sufficient to detect distinct conformations of the α face, covered by six scan lines. Multiple fields were scanned for each sample to collect images of hundreds of particles. Selected fields were repeatedly scanned to monitor changes in topography of the same particles for prolonged time. Inhibitors and the SucLLVY-MCA substrate were diluted in 10 μL of the imaging buffer and directly injected into the chamber. Raw images are presented, with a standard plain-fit and flattening (NanoScope software v.5.12) used as the only processing tools. For display purposes the brightness and contrast of the images was adjusted with the Nanoscope software or with Adobe Photoshop (Adobe Systems Inc.), and outlier scan lines were occasionally manually removed (Nanoscope software). Top view (“standing”, rounded) proteasomes were distinguished from the minor population of side-view (“lying”, rectangular) particles as described, by comparison of their length—to width ratios (Osmulski et al., 2009). The dimensions of particles were approximated and a shape of the α face in top-view proteasomes was judged with the help of a section tool in the Nanoscope v.5.12 or SPIP v.6.02 software (Image Metrology).
For this purpose, the inventors used the noninvasive tapping mode atomic force microscopy (AFM) in liquid, the imaging technique suitable for analysis of surface topography of macromolecules in their native state with a nanometer-scale practical resolution. The inventors established before that AFM imaging is a useful tool for studying structural dynamics of the 20S α face (Osmulski et al., 2009, Gaczynska et al., 2003; Gaczynska et al., 2011). They acquired and analyzed images of hundreds of single native, fully active 20S molecules. The majority of particles were in top-view (“standing”) position conveniently allowing for imaging of their α faces. […] Following previous extensive studies, the inventors refer to the two forms as “closed-gate” and “open-gate” proteasomes, respectively (Osmulski et al., 2009). As described before, the inventors used the shape of sections carried out in four directions through the top portion of the surface topography of the α ring to distinguish between the two forms. In short, the particle was classified as closed if all four sections were cone-shaped. In contrast, the particle was classified as open if all sections presented a dip surrounded by a rim (FIG. 5A) (Osmulski, et al., 2009). The same particles imaged in consecutive scans were able to assume either closed or open conformations, however the cone-shaped particles were always more abundant than crater-shaped, and accounted for about three-quarters of the imaged molecules (FIG. 5B). Addition of rapamycin to the imaged particles remarkably changed the partition of forms. […]

Assay [1] deals with MDA-MB-231 (triple-negative breast cancer) cells. The assay can be described thus: Viability/growth of MDA-MB-231 cells. The assay is classed as cell-based, human. How it is done:
The cells were grown in 24 or 12-well cell culture plates. […] The final concentration of the solvent was 1% (vol/vol). The number of live and dead cells after the treatment was approximated with calcein AM and ethidium homodimer (LiveDead test, Invitrogen) according to manufacturer's protocol, or by a Trypan Blue exclusion assay. In short, the cells after the treatment were washed three times with PBS and overlaid (surface-growing) or mixed (suspension-growing) with 4 microM calcein AM and 2 microM ethidium homodimer in PBS. […] The cell counts were approximated using standard curves of live and digitonin-killed cells prepared for each strain. Alternatively, after cell treatment the medium was removed, the surface growing cells were overlaid with Trypan Blue solution, and the colorless (live) and blue-colored (dead) cells were counted under the inverted microscope.

The subject of assay [2] is T2, human 20S proteasome, T-L peptidase.
T2 construct: purchased Enzo LifeSciences
Briefly: T-L peptidase activity of purified human 20S proteasome (BocLRR-MCA). The assay is classed as biochemical. The procedure:
Human purified proteasome complexes were purchased from Enzo LifeSciences or Boston Biochemicals (19S complex). BODIPY-casein (Invitrogen/Molecular Probes) was used as a model protein substrate, with increasing fluorescence of BODIPY labeled peptide products of degradation monitored for up to 8 hours at 37° C. The peptidase activity of the enzyme was measured as arbitrary intensity units of the released fluorescent group 7-amino-4-methylcoumarin (AMC) from peptide substrates, as described. The common substrates specific for the three kinds of active sites: succinyl-LeuLeuValTyr-7-amido-4-methylcoumarin (Suc-LLVY-MCA; for the ChT-L activity; Bachem), butoxycarbonyl-LeuArgArg-MCA (BocLRR-MCA; for T-L; Bachem) and carbobenzoxy-LeuLeuGlu-MCA (CbzLLE-MCA; for PGPH; Enzo Life Sciences International, Inc.) were used at 100 μM final concentrations, unless stated otherwise (Gaczynska and Osmulski, 2005). Proteasome substrates, rapamycin, its derivatives, and competing peptides were stocked in DMSO and diluted 100-fold in the reaction mixtures. The Rpt5 and PA200 C-terminal peptides were synthesized in the Departmental Peptide Synthesis Core using the standard SPPS chemistry. To activate the latent 20S proteasome, 0.005% (final concentration) of sodium dodecyl sulfate (SDS) was used. The reactions were carried out in 96 well plates, with 2.3 nM proteasome and other components as indicated dissolved in 50 mM Tris-HCl buffer (pH 8.0) and incubated at 37° C. for up to 1 hour. The fluorescence of products was monitored every 2 minutes with a Fluoroskan Ascent plate reader. Reaction rates were calculated from smoothed linear segment of kinetic curves using OriginPro 8.6 (OriginLabs, Northampton, Mass.). For the determination of an inhibition type, at least six distinct substrate concentrations and two inhibitor concentrations were used. The kinetic parameters of inhibition were analyzed in terms of the Michaelis-Menten formalism using the enzyme kinetic module of SigmaPlot v.12 (Systat Software, Inc, San Jose, Calif.) to perform the respective calculations.
IC50 values (a drug concentration causing 50% inhibition of the indicated enzymatic activity) were calculated for ChT-L and PGPH peptidases. Kd (dissociation constant) and Bmax (maximal activation effect achieved; in % above the control activity) values were calculated for the T-L peptidase. Mean±SD from n=2 or 3 experiments, or data from representative experiments set in duplicates or triplicates, are presented in the table. All three peptidase activities changed by no more than ±20%, without a concentration-dependent trend, upon treatment with up to 10 μM of rapamycin unrelated mTOR inhibitors PI-103 or NVP-BEZ235, in two independent experiments.

The structures appear in SMILES notation.

By Kd is commonly meant the free concentration of one partner at which half of the binding sites on the other are occupied at equilibrium, for simple one-to-one binding. A high value points to weaker binding. Consider `CO[C@@H](C[C@@H]1CC[C@@H](C)[C@](O)(C(=O)C(=O)N2CCCC[C@H]2C(=O)[O-])O1)/C(C)=C/C=C/C=C/[C@@H](C)C[C@@H](C)C(=O)[C@H](OC)[C@H](O)/C(C)=C/[C@@H](C)C(=O)/C=C/[C@H](C)C[C@@H]1CC[C@@H](O)[C@H](OC)C1.[Na+]` [seco-rapamycin], for which, in the assay on 20S proteasome α face, the closed conformers is reported as roughly 40% and the open conformers result was “about 60%”. Moreover, the EC50 in assay [1] (24 hours, drug alone, read-out: EC50 (concentration required to exclude 50% of cells)) is 0.869 µM. Further, in assay [1] (seco-rapamycin alone), the “growth of MDA-MB-231 cells” value is on record as “attenuated growth”. For the same compound, the “activation of post-basic (T-L) cleavages” value in assay [2] (5 μM) is reported as roughly 2 fold. The dissociation constant (Kd) in assay [2] (activation of T-L peptidase) was 5.33 µM. Moreover, the “Bmax [%]: T-L” value in assay [2] (maximal activation effect, % above the control activity) was 77%.
